Experimental data: patent US11413278B2, “Compounds and methods for promoting stress resistance” (priority 2015, dated 2022)
Read-outs that look alike come from different tables or passages of the source.

What was measured:
[1] = tested on: FOXO3; assay: qPCR analysis of FOXO3-regulated genes; type: cell-based, human; conditions: for fold induction at 10 µM: Homo sapiens; for K = Sestrin induction: score
How it was run: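 FOXO3 target-gene expression quantified by qPCR normalised to B2M, PPIA and GAPDH, in WI-38 cells after 24 h exposure to 10 μM compound. Some runs used cells first transfected 36 h with 10 nM FOXO3 or NRF2 siRNA and replated ~24 h before dosing.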

[2] = tested on: WI-38 cells; conditions: for No H2O2 stress treatment, at 10 uM (fold change): normalized ATP measurement
[3] = tested on: C. elegans; type: in vivo, Caenorhabditis elegans; conditions: in vivo
How it was run: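 Survival under oxidative stress: 500 μM H2O2 (final) was added to day-4 adults kept in liquid with compounds, FUdR present, 4 wells per molecule and 0.2% DMSO controls, with daily scoring of viability.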

[4] = Summary score for characterization of 38 core set hits; conditions: for D = Triple resistant: 2-point score, multiplex resistance (cadmium, MMS, H2O2); for S = Sum of Negative scores: human; for C = H2O2- & Cd-resistant: score, resistance to both H2O2 and cadmium
How it was run: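 Hits from a small-molecule screen for H2O2 resistance were scored across characterization assays. Multiplex resistance, FOXO3 and/or NRF2 activation and mTOR down-regulation each earned 2 points. C. elegans lifespan, tested in 4 to 6 independent trials, scored 0–2, and DNA-damaging or cytotoxic effects in cultured human cells cost one point.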

[5] = tested on: WI-38 cells; assay: Propidium iodide (PI) cell-death imaging upon H2O2 stress; type: cell-based, human; conditions: for Assay 7: H2O2-resistant, at 10 uM, validated by propidium iodide (PI) cell-death imaging: w/H2O2, 3 hrs/4 hrs/5 hrs, YES/NO; for cytotoxicity at 10 µM: Homo sapiens, WI-38
[6] = tested on: human dermal fibroblast (HDF) primary cells; assay: H2O2-resistance in primary human dermal fibroblasts; type: cell-based; conditions: for fold induction at 10 µM: Homo sapiens; for Assay 6: H2O2-resistant, at 10 uM, human dermal fibroblast (HDF) primary cells: YES/NO
[7] = WI-38 cells, 10 μM, 24 hrs, n=4, qPCR normalized by B2M, read-out: DDB1 Normalized fold change
[8] = WI-38 cells, 10 μM, 24 hrs, n=4, qPCR normalized by B2M, read-out: GADD45A Normalized fold change
[9] = WI-38 cells, 10 μM, 24 hrs, n=4, qPCR normalized by B2M, read-out: SESN1 Normalized fold change
[10] = qPCR, WI-38 cells, 10 μM, n=4, 24 hrs, normalized by B2M, read-out: CAT Normalized fold change
[11] = qPCR, WI-38 cells, 10 μM, n=4, 24 hrs, normalized by B2M, read-out: SOD2 Normalized fold change
[12] = qPCR, WI-38 cells, 10 μM, n=4, 24 hrs, normalized by B2M, read-out: TXNIP Normalized fold change
[13] = WI-38 cells, 10 μM, (*) = compromised ability to protect cells from H2O2, could be due to stability issue
[14] = asterisks indicate the loss of the ability to protect cells from H2O2 over time
[15] = derived from dose response curves, 0.6-20 uM, H2O2-resistance of WI-38 cells
[16] = read-out: Est. ED50, dose response 0.6-20 μM, H2O2-resistance
[17] = H2O2 3 hrs, 10 uM, n = 6, negative control 5.44% ± 0.79%, read-out: Percentage of propidium iodide-positive dead cells (under H2O2 stress treatment), 3 hrs
[18] = H2O2 4 hrs, 10 uM, n = 6, negative control 16.81% ± 1.42%, read-out: Percentage of propidium iodide-positive dead cells (under H2O2 stress treatment), 4 hrs
[19] = pre-treatment at 10 uM, 3.5 hours of H2O2, DMSO control 27.4% ± 6.5%, */**/*** = reduced by one/two/three standard deviations, read-out: Percentage of propidium iodide-positive dead cells (under H2O2 stress treatment), at 10 uM
[20] = Experiment 1, HDF cells, read-out: Experiment 1, HDF cells (under H2O2 stress treatment), at 10 uM (fold change)
[21] = Experiment 2, HDF cells, read-out: Experiment 2, HDF cells (under H2O2 stress treatment), at 10 uM (fold change)

| Compound | E = Potential FOXO3 Activation ([1]; 2-point score) | fold induction at 10 µM [1, 7] | fold induction at 10 µM [1, 8] | fold induction at 10 µM [1, 9] | fold induction at 10 µM [1, 10] | fold induction at 10 µM [1, 11] | fold induction at 10 µM [1, 12] | K = Sestrin induction [1] | E = Potential FOXO3 Activation ([1]; summary score) | H2O2-resistant [2, 13] | No H2O2 stress treatment, at 10 uM (fold change) ([2]; WI-38 cells) | H2O2-resistant [2, 14] | EC50 [2, 15] [µM] | EC50 [2, 16] [µM] | L = H2O2-resistance in worms [3] | N = H2O2-resistance in woms [3] | D = Triple resistant [4] | S = Sum of Negative scores [4] | C = H2O2- & Cd-resistant [4] | Assay 7: H2O2-resistant, at 10 uM, validated by propidium iodide (PI) cell-death imaging ([5]; 10 uM) | further results |
| --- | --- | --- | --- | --- | --- | --- | --- | --- | --- | --- | --- | --- | --- | --- | --- | --- | --- | --- | --- | --- | --- |
| CCCC(=O)Nc1ccc(-c2cn3cccc(C)c3n2)cc1 [O12] | 2 | 1.02 | 1.69 | 1.05 | 0.802 | 1.52 | 0.909 | 0 | 0 | YES | 1.01 | YES | 1 | 1 | 0 | 0 | 0 | 0 | 1 | YES | Induction of at least two of five FOXO3-regulated genes (SOD2, GADD45A, CAT, DDB1, TXNIP) ([1]; 10 μM, 24 hrs, WI-38): significant induction; SOD2 expression, normalized fold change (FOXO3-regulated gene) ([1]; 10 μM, 24 hrs, WI-38 cells, qPCR, normalized to B2M, n = 4): SOD2 1.52, fold; fold induction at 10 µM ([1]; 24 h, Assay 10(m), at 10 uM, qPCR, read-out: Induction of FOXO3-regulated genes: CAT normalized fold-change): 0.82; fold induction at 10 µM ([1]; 24 h, Assay 10(m), at 10 uM, qPCR, read-out: Induction of FOXO3-regulated genes: DDB1 normalized fold-change): 0.86; fold induction at 10 µM ([1]; 24 h, Assay 10(m), at 10 uM, qPCR, read-out: Induction of FOXO3-regulated genes: GADD45A normalized fold-change): 1.44; fold induction at 10 µM ([1]; 24 h, Assay 10(m), at 10 uM, qPCR, read-out: Induction of FOXO3-regulated genes: SOD2 normalized fold-change): 1.35; fold induction at 10 µM ([1]; 10 μM, 24 hrs, WI-38 cells, qPCR, normalized to B2M, n = 4, read-out: CAT expression, normalized fold change (FOXO3-regulated gene)): 0.8; fold induction at 10 µM ([1]; 10 μM, 24 hrs, WI-38 cells, qPCR, normalized to B2M, n = 4, read-out: GADD45A expression, normalized fold change (FOXO3-regulated gene)): 1.69; fold induction at 10 µM ([1]; fold change, qPCR, WI-38 cells, 10 μM, 24 hrs, read-out: Summary of effects on FOXO3-regulated genes: CAT): 0.8; fold induction at 10 µM ([1]; fold change, qPCR, WI-38 cells, 10 μM, 24 hrs, read-out: Summary of effects on FOXO3-regulated genes: GADD45A): 1.69; Summary of effects on FOXO3-regulated genes: SOD2 ([1]; fold change, qPCR, WI-38 cells, 10 μM, 24 hrs): SOD2 1.52,; H2O2-resistance assay, 1st experiment [3]: YES;; cytotoxicity at 10 µM [5, 17]: 0.74%; cytotoxicity at 10 µM [5, 18]: 0.77%; cytotoxicity at 10 µM ([5]; H2O2 5 hrs, 10 uM, n = 6, negative control 22.50% ± 1.53%, read-out: Percentage of propidium iodide-positive dead cells (under H2O2 stress treatment), 5 hrs): 1.33%; cytotoxicity at 10 µM [5, 19]: 0.4%; fold induction at 10 µM [6, 20]: 264; fold induction at 10 µM [6, 21]: 49.2; Assay 6: H2O2-resistant, at 10 uM, human dermal fibroblast (HDF) primary cells [6]: YES |
| O=C(Nc1nc(C23CC4CC(CC(C4)C2)C3)cs1)C(c1ccccc1)c1ccccc1 [O10] | 0 | 0.906 | 1.19 | 0.983 | 0.892 | 0.912 | 0.731 | 0 | 0 | YES | 1.08 | YES | 9.5 | 9.5 | 0 | 0 | 0 | 0 | 1 | YES | Assay 1: H2O2-resistant ([2]; YES/NO, if NO, possibly due to repeated freezing/thawing of stocks): YES; cytotoxicity at 10 µM [5, 17]: 2.19%; cytotoxicity at 10 µM [5, 18]: 4.27%; cytotoxicity at 10 µM [5, 19]: 3.6%; fold induction at 10 µM [6, 20]: 12.6; fold induction at 10 µM [6, 21]: 8.91; Assay 6: H2O2-resistant, at 10 uM, human dermal fibroblast (HDF) primary cells [6]: YES |
